In paper PMC5596636 (ACS chemical neuroscience, 2016):
Entries after “also recorded” stand apart in the source; their conditions may differ.

Legend:
[1] = biological target: T1, mMC1R (Mus musculus, UniProt Q01727); details: B16 murine melanoma cells; relative to α-MSH; cited from earlier work
[2] = biological target: mMC4R (Mus musculus, UniProt P56450); test: cAMP-based β-galactosidase reporter agonist assay in HEK293 cells, mMC4R; details: for mMC4R fold difference: potency loss; for selectivity for the mMC4R over the mMC1R: from agonist EC50 values
Sequence of mMC4R (P56450 whole entry): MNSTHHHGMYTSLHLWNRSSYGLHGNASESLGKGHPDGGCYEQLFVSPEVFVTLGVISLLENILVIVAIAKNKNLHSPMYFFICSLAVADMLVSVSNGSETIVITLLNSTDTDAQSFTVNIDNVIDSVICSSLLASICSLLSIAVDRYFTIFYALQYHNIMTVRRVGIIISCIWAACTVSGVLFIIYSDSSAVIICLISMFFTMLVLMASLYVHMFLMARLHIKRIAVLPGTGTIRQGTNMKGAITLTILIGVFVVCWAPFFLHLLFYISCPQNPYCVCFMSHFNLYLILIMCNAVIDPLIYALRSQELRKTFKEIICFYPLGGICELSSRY

[3] = biological target: mMC3R (Mus musculus, UniProt P33033); test: cAMP-based β-galactosidase reporter agonist assay in HEK293 cells, mMC3R; details: for selectivity for the mMC3R over the mMC1R: from agonist EC50 values; for mMC3R fold difference: EC50 of substituted peptide divided by EC50 of NDP-MSH, potency loss
Sequence of mMC3R (P33033 whole entry): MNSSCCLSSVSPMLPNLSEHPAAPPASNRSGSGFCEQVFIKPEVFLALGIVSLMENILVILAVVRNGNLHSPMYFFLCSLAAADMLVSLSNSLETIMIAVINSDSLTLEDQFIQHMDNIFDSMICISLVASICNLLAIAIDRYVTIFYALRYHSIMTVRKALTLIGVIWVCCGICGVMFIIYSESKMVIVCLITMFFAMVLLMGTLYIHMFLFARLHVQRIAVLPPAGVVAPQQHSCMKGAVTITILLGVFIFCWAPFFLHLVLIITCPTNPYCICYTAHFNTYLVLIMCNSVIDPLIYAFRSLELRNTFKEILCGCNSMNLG

[4] = biological target: T1, mMC1R; details: B16 murine melanoma cells; relative to α-MSH; cited from earlier work; remark: listed apart in the source
[5] = system: rMC3R; details: HEK293 cells expressing the rMC3R; relative to α-MSH; cited from earlier work
[6] = biological target: mMC5R (Mus musculus, UniProt P41149); test: cAMP-based β-galactosidase reporter agonist assay in HEK293 cells, mMC5R; details: for mMC5R fold difference: potency loss
Sequence of mMC5R (P41149 whole entry): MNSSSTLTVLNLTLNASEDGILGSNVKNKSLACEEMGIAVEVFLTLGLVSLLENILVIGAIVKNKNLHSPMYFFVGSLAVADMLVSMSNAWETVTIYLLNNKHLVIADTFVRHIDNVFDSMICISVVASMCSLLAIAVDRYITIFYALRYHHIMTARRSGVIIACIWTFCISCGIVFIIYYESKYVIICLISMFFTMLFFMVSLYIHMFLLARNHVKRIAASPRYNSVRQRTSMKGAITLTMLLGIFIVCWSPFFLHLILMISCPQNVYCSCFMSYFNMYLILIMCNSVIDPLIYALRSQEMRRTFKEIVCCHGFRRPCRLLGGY

[7] = biological target: T1, mMC1R; test: cAMP-based β-galactosidase reporter agonist assay in HEK293 cells, mMC1R; details: for mMC1R fold difference: potency loss
[8] = system: hMC4R; details: cited from earlier work
[9] = system: hMC3R; details: COS cell-line expressing human melanocortin receptors; cited from earlier work
[10] = system: hMC1R; details: COS cell-line expressing human melanocortin receptors; cited from earlier work
[11] = system: hMC4R; details: cited from earlier work; remark: listed apart in the source
[12] = system: hMC1R; details: cited from earlier work
[13] = EC50 of substituted peptide divided by EC50 of α-MSH
[14] = EC50 of substituted peptide divided by EC50 of NDP-MSH

T1 sequence (Q01727 whole entry): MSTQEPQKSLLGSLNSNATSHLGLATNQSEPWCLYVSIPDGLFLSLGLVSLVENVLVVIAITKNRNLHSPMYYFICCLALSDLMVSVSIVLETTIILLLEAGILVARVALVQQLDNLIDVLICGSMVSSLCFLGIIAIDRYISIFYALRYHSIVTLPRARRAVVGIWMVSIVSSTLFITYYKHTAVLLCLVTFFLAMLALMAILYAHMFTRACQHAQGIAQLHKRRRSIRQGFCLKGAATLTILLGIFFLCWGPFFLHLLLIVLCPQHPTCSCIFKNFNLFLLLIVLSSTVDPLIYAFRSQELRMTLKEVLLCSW

Structure (SMILES) | fold decreased binding affinity at the mMC1R [1] | mMC4R fold difference [2, 13] | EC50 [3] | fold decreased tyrosinase potency at the mMC1R [4] | fold decreased binding affinity at the rMC3R [5] | mMC5R fold difference [6, 13] | mMC1R fold difference [7, 13] | mMC4R fold difference [2, 14] | mMC5R fold difference [6, 14] | mMC1R fold difference [7, 14] | also measured
CSCC[C@H](NC(=O)[C@H](C)NC(=O)[C@H](Cc1ccc(O)cc1)NC(=O)[C@H](CO)NC(C)=O)C(=O)N[C@@H](CCC(=O)O)C(=O)N[C@@H](Cc1c[nH]cn1)C(=O)N[C@@H](Cc1ccccc1)C(=O)N[C@@H](CCCNC(=N)N)C(=O)N[C@@H](Cc1c[nH]c2ccccc12)C(=O)NCC(=O)N[C@@H](CCCCN)C(=O)N1CCC[C@H]1C(=O)N[C@H](C(N)=O)C(C)C [[Ala^3]α-MSH] | equipotent | within experimental error | 12.1 ± 6.35 nM | equipotent | equipotent | within experimental error | 26 fold | – | – | – | –
CC(=O)N[C@@H](CO)C(=O)N[C@@H](Cc1ccc(O)cc1)C(=O)N[C@@H](CO)C(=O)N[C@@H](C)C(=O)N[C@@H](CCC(=O)O)C(=O)N[C@@H](Cc1c[nH]cn1)C(=O)N[C@@H](Cc1ccccc1)C(=O)N[C@@H](CCCNC(=N)N)C(=O)N[C@@H](Cc1c[nH]c2ccccc12)C(=O)NCC(=O)N[C@@H](CCCCN)C(=O)N1CCC[C@H]1C(=O)N[C@H](C(N)=O)C(C)C [[Ala^4]α-MSH] | 140 fold | 5 fold | 17.4 ± 6.12 nM | 59 fold | 14 fold | did not alter potency | 400 fold | – | – | – | selectivity for the mMC4R over the mMC1R [2]: 100 fold; selectivity for the mMC3R over the mMC1R [3]: 710 fold; selectivity for the mMC5R over the mMC1R ([6]; from agonist EC50 values): 210 fold
CCCC[C@H](NC(=O)[C@H](CO)NC(=O)[C@H](Cc1ccc(O)cc1)NC(=O)[C@H](CO)NC(C)=O)C(=O)N[C@@H](C)C(=O)N[C@@H](Cc1c[nH]cn1)C(=O)N[C@H](Cc1ccccc1)C(=O)N[C@@H](CCCNC(=N)N)C(=O)N[C@@H](Cc1c[nH]c2ccccc12)C(=O)NCC(=O)N[C@@H](CCCCN)C(=O)N1CCC[C@H]1C(=O)N[C@H](C(N)=O)C(C)C [[Ala^5]NDP-MSH, Ac-Ser-Tyr-Ser-Nle-Ala-His-DPhe-Arg-Trp-Gly-Lys-Pro-Val-NH2] | – | – | 1.18 ± 0.4 nM | – | – | – | – | 4 fold | no change | no change | mMC3R fold difference [3]: 5 fold; fold decreased agonist potency at the hMC4R relative to NDP-MSH [8]: 4 fold
CSCC[C@H](NC(=O)[C@H](CO)NC(=O)[C@H](Cc1ccc(O)cc1)NC(=O)[C@H](CO)NC(C)=O)C(=O)N[C@@H](C)C(=O)N[C@@H](Cc1c[nH]cn1)C(=O)N[C@@H](Cc1ccccc1)C(=O)N[C@@H](CCCNC(=N)N)C(=O)N[C@@H](Cc1c[nH]c2ccccc12)C(=O)NCC(=O)N[C@@H](CCCCN)C(=O)N1CCC[C@H]1C(=O)N[C@H](C(N)=O)C(C)C [[Ala^5]α-MSH] | equipotent | 15 fold | 220 ± 55 nM | equipotent | equipotent | unaltered | 1560 fold | – | – | – | selectivity for the mMC4R over the mMC1R [2]: 130 fold; selectivity for the mMC3R over the mMC1R [3]: 220 fold; selectivity for the mMC5R over the mMC1R ([6]; from agonist EC50 values): 740 fold; EC50 ([7]; mMC1R EC50, bound, Table 2, EC50 higher than 20 μM): > 20000 nM
CCCC[C@H](NC(=O)[C@H](CO)NC(=O)[C@H](Cc1ccc(O)cc1)NC(=O)[C@H](CO)NC(C)=O)C(=O)N[C@@H](CCC(=O)O)C(=O)N[C@@H](C)C(=O)N[C@H](Cc1ccccc1)C(=O)N[C@@H](CCCNC(=N)N)C(=O)N[C@@H](Cc1c[nH]c2ccccc12)C(=O)NCC(=O)N[C@@H](CCCCN)C(=O)N1CCC[C@H]1C(=O)N[C@H](C(N)=O)C(C)C [[Ala^6]NDP-MSH, Ac-Ser-Tyr-Ser-Nle-Glu-Ala-DPhe-Arg-Trp-Gly-Lys-Pro-Val-NH2] | – | – | 0.55 ± 0.12 nM | – | – | – | – | did not alter agonist potency | did not alter agonist potency | did not alter agonist potency | fold decreased binding affinity at the hMC3R [9]: 6 fold; fold decreased binding affinity at the hMC1R [10]: 8 fold; mMC3R fold difference [3]: did not alter agonist potency; also recorded: equipotency; fold decreased agonist potency at the hMC4R relative to NDP-MSH [8]: 4 fold; efficacy relative to NDP-MSH at the hMC4R [11]: 40%; fold agonist potency loss at the hMC4R relative to NDP-MSH [11]: equipotent
CSCC[C@H](NC(=O)[C@H](CO)NC(=O)[C@H](Cc1ccc(O)cc1)NC(=O)[C@H](CO)NC(C)=O)C(=O)N[C@@H](CCC(=O)O)C(=O)N[C@@H](C)C(=O)N[C@@H](Cc1ccccc1)C(=O)N[C@@H](CCCNC(=N)N)C(=O)N[C@@H](Cc1c[nH]c2ccccc12)C(=O)NCC(=O)N[C@@H](CCCCN)C(=O)N1CCC[C@H]1C(=O)N[C@H](C(N)=O)C(C)C [[Ala^6]α-MSH] | 83 fold | 110 fold | 4270 ± 1960 nM | 6 fold | 6 fold | 45 fold | 35 fold | – | – | – | –
CSCC[C@H](NC(=O)[C@H](CO)NC(=O)[C@H](Cc1ccc(O)cc1)NC(=O)[C@H](CO)NC(C)=O)C(=O)N[C@@H](CCC(=O)O)C(=O)N[C@@H](Cc1c[nH]cn1)C(=O)N[C@@H](C)C(=O)N[C@@H](CCCNC(=N)N)C(=O)N[C@@H](Cc1c[nH]c2ccccc12)C(=O)NCC(=O)N[C@@H](CCCCN)C(=O)N1CCC[C@H]1C(=O)N[C@H](C(N)=O)C(C)C [[Ala^7]α-MSH] | 500 fold | 190 fold | 1660 ± 825 nM | 260 fold | 91 fold | 210 fold | 200 fold | – | – | – | –
CCCC[C@H](NC(=O)[C@H](CO)NC(=O)[C@H](Cc1ccc(O)cc1)NC(=O)[C@H](CO)NC(C)=O)C(=O)N[C@@H](CCC(=O)O)C(=O)N[C@@H](Cc1c[nH]cn1)C(=O)N[C@H](Cc1ccccc1)C(=O)N[C@@H](C)C(=O)N[C@@H](Cc1c[nH]c2ccccc12)C(=O)NCC(=O)N[C@@H](CCCCN)C(=O)N1CCC[C@H]1C(=O)N[C@H](C(N)=O)C(C)C [[Ala^8]NDP-MSH, Ac-Ser-Tyr-Ser-Nle-Glu-His-DPhe-Ala-Trp-Gly-Lys-Pro-Val-NH2] | – | – | 2.07 ± 0.42 nM | – | – | – | – | 29 fold | did not affect the agonist potency | 6 fold | fold agonist potency loss at the hMC4R relative to NDP-MSH [11]: 32 fold
CSCC[C@H](NC(=O)[C@H](CO)NC(=O)[C@H](Cc1ccc(O)cc1)NC(=O)[C@H](CO)NC(C)=O)C(=O)N[C@@H](CCC(=O)O)C(=O)N[C@@H](Cc1c[nH]cn1)C(=O)N[C@@H](Cc1ccccc1)C(=O)N[C@@H](C)C(=O)N[C@@H](Cc1c[nH]c2ccccc12)C(=O)NCC(=O)N[C@@H](CCCCN)C(=O)N1CCC[C@H]1C(=O)N[C@H](C(N)=O)C(C)C [[Ala^8]α-MSH] | 2080 fold | 470 fold | 670 ± 215 nM | 100 fold | 200 fold | 5 fold | 200 fold | – | – | – | selectivity for the mMC5R over the mMC4R ([6]; from agonist EC50 values): 120 fold
CCCC[C@H](NC(=O)[C@H](CO)NC(=O)[C@H](Cc1ccc(O)cc1)NC(=O)[C@H](CO)NC(C)=O)C(=O)N[C@@H](CCC(=O)O)C(=O)N[C@@H](Cc1c[nH]cn1)C(=O)N[C@H](Cc1ccccc1)C(=O)N[C@@H](CCCNC(=N)N)C(=O)N[C@@H](C)C(=O)NCC(=O)N[C@@H](CCCCN)C(=O)N1CCC[C@H]1C(=O)N[C@H](C(N)=O)C(C)C [[Ala^9]NDP-MSH, Ac-Ser-Tyr-Ser-Nle-Glu-His-DPhe-Arg-Ala-Gly-Lys-Pro-Val-NH2] | – | – | 295 ± 92 nM | – | – | – | – | 2120 fold | 220 fold | 180 fold | agonist efficacy at the hMC1R [12]: full agonist; fold less potent than NDP-MSH at the hMC1R [12]: 3 fold; mMC3R fold difference [3]: 1230 fold; activation of the hMC4R ([11]; at concentrations up to 100 μM): not to activate
CSCC[C@H](NC(=O)[C@H](CO)NC(=O)[C@H](Cc1ccc(O)cc1)NC(=O)[C@H](CO)NC(C)=O)C(=O)N[C@@H](CCC(=O)O)C(=O)N[C@@H](Cc1c[nH]cn1)C(=O)N[C@@H](Cc1ccccc1)C(=O)N[C@@H](CCCNC(=N)N)C(=O)N[C@@H](C)C(=O)NCC(=O)N[C@@H](CCCCN)C(=O)N1CCC[C@H]1C(=O)N[C@H](C(N)=O)C(C)C [[Ala^9]α-MSH] | 2000 fold | 1500 fold | 15700 ± 4870 nM | 120 fold | 83 fold | 1370 fold | 570 fold | – | – | – | EC50 ([2]; mMC4R EC50, bound, Table 2, EC50 higher than 20 μM): > 20000 nM; EC50 ([6]; mMC5R EC50, bound, Table 2, EC50 higher than 20 μM): > 20000 nM
